According to patent publication US20250312469A1 (CANGET BIOTEKPHARMA, priority 2024, published 2025):

Experiments:
[1] = target: T1, CYP2B6 (Homo sapiens, UniProt P20813); assay: in vitro
T1 sequence (P20813 1-491): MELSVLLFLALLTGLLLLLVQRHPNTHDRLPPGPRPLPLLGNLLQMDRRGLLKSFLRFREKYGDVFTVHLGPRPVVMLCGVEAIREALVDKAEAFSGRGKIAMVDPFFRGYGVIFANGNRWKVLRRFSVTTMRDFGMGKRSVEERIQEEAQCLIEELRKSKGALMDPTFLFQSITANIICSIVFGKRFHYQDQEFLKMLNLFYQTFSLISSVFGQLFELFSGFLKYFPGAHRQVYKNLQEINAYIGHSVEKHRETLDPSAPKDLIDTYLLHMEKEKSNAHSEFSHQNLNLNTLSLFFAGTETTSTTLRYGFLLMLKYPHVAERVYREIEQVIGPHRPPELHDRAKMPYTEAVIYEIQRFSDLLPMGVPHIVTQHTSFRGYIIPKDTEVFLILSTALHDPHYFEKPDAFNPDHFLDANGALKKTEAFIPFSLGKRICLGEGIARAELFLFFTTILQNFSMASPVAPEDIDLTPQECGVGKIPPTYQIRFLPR
Method: (§1) The CYP reaction was initiated by adding a CYP probe substrate and incubating at 37° C. for 10-20 minutes, depending on the individual CYP isoform. The reaction was terminated with the addition of 400 μL ice-cold acetonitrile (ACN). […] Positive controls were performed in parallel using a known inhibitor of the individual CYP isoform. […] The samples were then transferred to 96-well plates and analyzed by LC-MS/MS (Appendix 1).

[2] = tested on: CYP3A; assay: in vitro
Method: as §1

[3] = target: CYP1A2 (Homo sapiens, UniProt P05177); assay: in vitro
Sequence of CYP1A2 (P05177 whole entry): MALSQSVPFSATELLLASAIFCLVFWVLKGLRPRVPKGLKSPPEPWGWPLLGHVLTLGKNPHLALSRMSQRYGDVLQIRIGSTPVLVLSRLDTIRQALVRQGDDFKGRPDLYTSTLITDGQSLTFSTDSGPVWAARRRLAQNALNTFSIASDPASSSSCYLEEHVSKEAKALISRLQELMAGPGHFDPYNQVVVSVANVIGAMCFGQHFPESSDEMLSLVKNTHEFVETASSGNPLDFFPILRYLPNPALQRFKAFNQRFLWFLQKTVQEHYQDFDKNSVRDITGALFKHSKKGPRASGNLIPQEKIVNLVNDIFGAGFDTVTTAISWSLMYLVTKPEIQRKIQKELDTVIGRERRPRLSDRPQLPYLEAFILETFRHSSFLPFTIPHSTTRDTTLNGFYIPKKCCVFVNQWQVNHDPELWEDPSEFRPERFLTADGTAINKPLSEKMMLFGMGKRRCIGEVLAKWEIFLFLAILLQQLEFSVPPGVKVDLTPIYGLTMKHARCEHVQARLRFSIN
Method: as §1

[4] = tested on: LAPC9-AI vs. LAPC9-AD cells; assay: LAPC9 organoid assay; assay type: cell-based
[5] = target: T2, bovine serum albumin (BSA) (Bos taurus, UniProt P02769); assay: 3H-FL118 binding, Nanosep 3K centrifugal device; conditions: negative control protein
T2 construct: purchased EMD (Billerica, MA)
T2 sequence (P02769 25-607): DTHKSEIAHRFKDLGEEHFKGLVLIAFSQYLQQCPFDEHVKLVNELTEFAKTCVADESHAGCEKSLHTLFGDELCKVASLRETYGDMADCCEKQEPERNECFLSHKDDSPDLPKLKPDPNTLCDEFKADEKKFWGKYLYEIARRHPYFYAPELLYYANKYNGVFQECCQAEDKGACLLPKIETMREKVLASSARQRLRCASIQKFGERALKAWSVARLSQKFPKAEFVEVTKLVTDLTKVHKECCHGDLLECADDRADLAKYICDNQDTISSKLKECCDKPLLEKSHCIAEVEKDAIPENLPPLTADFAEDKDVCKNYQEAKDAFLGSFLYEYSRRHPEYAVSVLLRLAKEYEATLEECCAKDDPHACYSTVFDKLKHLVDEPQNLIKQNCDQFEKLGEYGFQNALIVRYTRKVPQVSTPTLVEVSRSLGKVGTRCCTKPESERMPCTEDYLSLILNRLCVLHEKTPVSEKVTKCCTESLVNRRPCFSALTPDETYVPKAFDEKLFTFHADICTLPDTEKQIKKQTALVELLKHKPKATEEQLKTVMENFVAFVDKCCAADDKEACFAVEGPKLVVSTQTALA
Method: Then, 5-10 μg of the FLAGR M Purification Kit (Signa)-purified Flag-USP2a and Flag-UbE2T proteins in a volume of 20-50 μL, respectively, was transferred into the sample reservoir of a 1.5 mL Nanosep 3K Centrifugal Device. In parallel, a negative control Nanosep 3K Centrifugal Devices containing 10 μg bovine serum albumin (BSA) in 50 μL volume was also set up. Then, the 3 prepared Nanosep 3K Devices were centrifuged at 10,000 rpm for 10-15 min to eliminate the solution and retain the proteins in the sample reservoir. […] Lastly, all three of the sample reservoir devices were transferred into a scintillation vial containing enough scintillation solution to cover the entire sample reservoir devices for tritium (3H) counting on the LS 6500 Scintillation System (Backman Couler™).

[6] = in vivo; conditions: SCID, mouse, iv

CCC1(O)C(=O)OCc2c1cc1n(c2=O)Cc2cc3cc4c(cc3nc2-1)OCO4 (stereo not shown) [FL118]
CYP2B6 inhibition ([1]; 1 μM): does not inhibit these 3 CYP isoforms | inhibition at 1 µM ([1]; human, microsomes, pH 7.4): 0% | CYP3A inhibition ([2]; 1 μM, testosterone probe): does not inhibit these 3 CYP isoforms | inhibition at 1 µM ([2]; human, microsomes, pH 7.4): 0% | CYP1A2 inhibition ([3]; 1 μM): does not inhibit these 3 CYP isoforms | inhibition at 1 µM ([3]; human, microsomes, pH 7.4): 0.1% | toxicity to AR−/lo LAPC9-AI vs AR+ LAPC9-AD cells [4]: selective toxicity | 3H CPM counts in retained parts [5]: 4,230 ± 370 CPM | Tmax ([6]; FaDu tumor): 10 min | half-life ([6]; FaDu tumor): 411 min | Tmax ([6]; SW620 tumor): 10 min | half-life ([6]; SW620 tumor): 765 min | Tmax ([6]; plasma): 10 min | Vd ([6]; plasma): 36.8 L/kg | clearance ([6]; plasma): 238 mL/min/kg | half-life ([6]; plasma): 107 min
